Targets include RacACT; Rab7; Cdc42WT; RacWT; RhoWT.
Experiment in all cases: GTPase panel nucleotide binding inhibition – biochemical, bead flow cytometry, Mg non-chelator buffer, round 2, SAR follow-up (AID 588622)
Settings in all cases: bead-based flow cytometry multiplex GTP binding; for % response (lower = inhibition): at 100 µM (top of the series)

The structures appear in SMILES notation. Calls of active or inactive are those of the source. How the calls were made is not given here.

For orientation: EC50 means the concentration needed to bring the measured effect to its halfway point.

Regarding `Cc1ccccc1C(=O)NC(=S)Nc1sc2c(c1C(=O)O)CC(C)(C)OC2`, the EC50 at RacACT was 370 nM; at Rab7 it was 523 nM; on Cdc42WT, 352 nM; on RacWT it was 438 nM; at RhoWT it was 486 nM.

`COc1ccccc1C(=O)NC(=S)Nc1sc2c(c1C(=O)O)CC(C)(C)OC2`: the “% response (lower = inhibition)” value on RacACT, at Rab7, on Cdc42WT, at RacWT and at RhoWT was “inactive” in each case.

For the compound `CC1(C)Cc2c(sc(NC(=S)NC(=O)c3ccco3)c2C(=O)O)CO1`, the EC50 on RacACT is 59 nM; at Rab7, 82 nM; on Cdc42WT, 62 nM; at RacWT, 59 nM; on RhoWT, 92 nM.

`CC1(C)Cc2c(sc(NC(=S)NC(=O)c3ccccc3F)c2C(=O)O)CO1`: the EC50 is 455 nM at RacACT; 316 nM at Rab7; 443 nM at Cdc42WT; 452 nM at RacWT; 431 nM on RhoWT.

As to `O=C(NC(=S)Nc1sc2c(c1C(=O)O)CC1(CCCC1)OC2)c1ccccc1`, the EC50 on RacACT is 80 nM; at Rab7 it was 33 nM; on Cdc42WT it was 50 nM; on RacWT, 56 nM; at RhoWT it was 101 nM.

Take `CC1(C)Cc2c(sc(NC(=S)NC(=O)c3cccs3)c2C(=O)O)CO1`: the EC50 on RacACT is 27 nM; on Rab7, 25 nM; at Cdc42WT it was 30 nM; at RacWT, 29 nM; at RhoWT, 33 nM.

As to `CC1(C)Cc2c(sc(NC(=S)NC(=O)c3cccc(F)c3)c2C(=O)O)CO1`, the “% response (lower = inhibition)” value at RacACT is “inactive”. Moreover, the EC50 on Rab7 was 423 nM; on Cdc42WT, 689 nM; on RacWT it was 491 nM; on RhoWT, 599 nM.

As to `CC1(C)Cc2c(sc(NC(=S)NC(=O)C3CCCCC3)c2C(=O)O)CO1`, the EC50 is 397 nM at RacACT; 461 nM at Rab7; 660 nM at Cdc42WT; 495 nM on RacWT; 814 nM at RhoWT.

On to `CC1(C)Cc2c(sc(NC(=S)NC(=O)c3ccc(Br)cc3)c2C(=O)O)CO1`, for which the concentration for a half-maximal effect (EC50) is 455 nM on RacACT; 431 nM on Rab7; 539 nM at Cdc42WT; 391 nM at RacWT; 475 nM on RhoWT.

Regarding `CC1(C)CCc2sc(NC(=S)NC(=O)c3ccccc3)c(C(=O)O)c2C1`, the EC50 at RacACT was 48 nM; on Rab7, 69 nM; at Cdc42WT, 62 nM; on RacWT it was 48 nM; at RhoWT it was 62 nM.

Regarding `COc1cccc(C(=O)NC(=S)Nc2sc3c(c2C(=O)O)CC(C)(C)OC3)c1`, the “% response (lower = inhibition)” value at RacACT and on RacWT was “inactive” each time. Moreover, the values for the EC50 at Rab7, on Cdc42WT and on RhoWT were 323 nM, 251 nM and 292 nM, respectively.

For the compound `CC(C)(C)C1Cc2c(sc(NC(=S)NC(=O)c3ccccc3)c2C(=O)O)CO1` (stereo not given), the EC50 is 146 nM on RacACT; 218 nM on Rab7; 164 nM on Cdc42WT; 139 nM at RacWT; 197 nM at RhoWT.

In the case of `CC1(C)Cc2c(sc(NC(=S)NC(=O)c3ccc(F)cc3)c2C(=O)O)CO1`, the half-maximal effective concentration (EC50) on RacACT is 133 nM; at Rab7 it was 77 nM; on Cdc42WT, 171 nM; on RacWT, 147 nM; on RhoWT it was 112 nM.

For the compound `Cc1ccc(C(=O)NC(=S)Nc2sc3c(c2C(=O)O)CC(C)(C)OC3)cc1`, the EC50 at RacACT is 139 nM; on Rab7, 97 nM; at Cdc42WT it was 109 nM; at RacWT, 147 nM; at RhoWT it was 131 nM.

In the case of `CC1(C)Cc2c(sc(NC(=S)Nc3ccccc3)c2C(=O)O)CO1`, the “% response (lower = inhibition)” value on RacACT, at Cdc42WT, on RacWT and at RhoWT was “inactive” in each case. For the same compound, at Rab7, the EC50 was 4990 nM.

Turning to `CC1(C)Cc2c(sc(NC(=S)NC(=O)c3ccccc3Br)c2C(=O)O)CO1`, the EC50 was 1180 nM at RacACT, 1250 nM at Rab7, 1560 nM on Cdc42WT and 1330 nM at RhoWT. At RacWT, the “% response (lower = inhibition)” value was “inactive”.

Regarding `Cc1cccc(C(=O)NC(=S)Nc2sc3c(c2C(=O)O)CC(C)(C)OC3)c1`, the “% response (lower = inhibition)” value on RacACT and on RacWT was “inactive” throughout. Moreover, the 50% effective concentration (EC50) at Rab7 is 325 nM; at Cdc42WT, 1680 nM; on RhoWT, 1450 nM.

Turning to `COc1ccc(C(=O)NC(=S)Nc2sc3c(c2C(=O)O)CC(C)(C)OC3)cc1`, the EC50 on RacACT is 243 nM; on Rab7, 214 nM; at Cdc42WT, 203 nM; on RacWT, 197 nM; on RhoWT it was 213 nM.

As to `CCC1(C)Cc2c(sc(NC(=S)NC(=O)c3ccccc3)c2C(=O)O)CO1` (stereo not given), the 50% effective concentration (EC50) on RacACT was 46 nM; at Rab7 it was 35 nM; on Cdc42WT, 51 nM; at RacWT, 53 nM; on RhoWT, 46 nM.

With `CC1(C)Cc2c(sc(NC(=S)NC(=O)c3cccc(Br)c3)c2C(=O)O)CO1`, the “% response (lower = inhibition)” value at RacACT, on Rab7, at Cdc42WT, at RacWT and on RhoWT was “inactive” each time.

Values taken from PubChem BioAssay AID588622 (NMMLSC, 2011).
